# Target: T1, Cloned Human Dopamine D3 Receptors (Homo sapiens, UniProt P35462)
# T1 construct: expressed in transfected cells; membrane homogenate
# Experiment: [N-Methyl-3H]Spiroperidol binding to cloned human dopamine D3 receptors
# Conditions: D3 Ki (nM)
# Procedure, shortened: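 Membranes from CHO cells stably expressing human D3 receptor, homogenised in 10% DMSO and stored at -80°C. Binding uses [N-methyl-3H]spiroperidol in Tris buffer, pH 7.7.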
# T1 sequence (P35462 whole entry): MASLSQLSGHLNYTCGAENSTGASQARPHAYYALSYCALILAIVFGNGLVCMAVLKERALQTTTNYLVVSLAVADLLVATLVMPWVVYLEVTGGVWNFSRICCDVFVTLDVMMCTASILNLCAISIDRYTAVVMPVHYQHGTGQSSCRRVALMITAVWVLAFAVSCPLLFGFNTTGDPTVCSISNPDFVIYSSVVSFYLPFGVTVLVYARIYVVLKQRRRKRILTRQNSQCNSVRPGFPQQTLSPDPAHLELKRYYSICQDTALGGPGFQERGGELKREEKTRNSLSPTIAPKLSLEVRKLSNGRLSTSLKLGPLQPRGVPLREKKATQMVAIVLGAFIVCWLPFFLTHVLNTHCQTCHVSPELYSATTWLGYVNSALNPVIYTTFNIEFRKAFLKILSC
row,Structure (SMILES),Ki
1,O=C(NCCCc1nc2ccccc2[nH]1)[C@@H]1C[C@H]1CN1CCC(c2noc3ccsc23)CC1 [832574FH],57.3 nM
2,O=C([C@@H]1C[C@H]1CN1CCC(c2noc3ccsc23)CC1)N1CCN(Cc2ccc(Cl)cc2)CC1 [compound 833128],28.7 nM
3,O=C(NC1CCN(C(=O)Nc2ccc(F)cc2)CC1)[C@@H]1C[C@H]1CN1CCC(c2noc3ccsc23)CC1 [compound 833715],5.7 nM
4,CN1CCCC1CCNC(=O)C1CC1CN1CCN(c2csc3cc(C(F)(F)F)ccc23)CC1 (centres unmarked) [compound 832217],44.1 nM

# Same assay, conditions: Table 2; unit inferred; read-out: d3Ki
row,Structure (SMILES),Ki
1,CC[C@H]1CC[C@H](NC(=O)[C@@H]2C[C@H]2CN2CCN(c3ccccc3C#N)CC2)CC1 [compound 817044],1.1 nM
2,C[C@@]1(C(=O)NCc2ccc3ccccc3c2)C[C@H]1CN1CCN(c2csc3cc(C(F)(F)F)ccc23)CC1 [compound 825882],186 nM
3,CCOC(=O)C1CCC(NC(=O)CCCN2CCN(c3csc4cc(F)ccc34)CC2CCCc2ccccc2)CC1 (centres unmarked) [compound 827106],317 nM
4,CN(C)c1ccc(CNC(=O)[C@@H]2C[C@H]2CN2CCN(c3csc4cc(C(F)(F)F)ccc34)CC2)cc1 [compound 826066],60.3 nM
5,CC[C@H]1CC[C@H](NC(=O)[C@@H]2C[C@H]2CN2CCN(c3ccc(OC)cc3OC)CC2)CC1 [compound 817096],9.09 nM
6,Cc1ccccc1N1CCN(C[C@@H]2C[C@H]2C(=O)N[C@H]2CC[C@H](C)CC2)CC1 [817478A],1.99 nM
7,CC[C@H]1CC[C@H](NC(=O)[C@@H]2C[C@H]2CN2CCN(c3ccc(Cl)c(Cl)c3)CC2)CC1 [compound 817090],2.17 nM
8,C[C@@]1(C(=O)NCc2ccco2)C[C@H]1CN1CCN(c2csc3cc(C(F)(F)F)ccc23)CC1 [compound 825897],140 nM
9,COc1ccc(CNC(=O)[C@@H]2C[C@H]2CN2CCN(c3csc4cc(C(F)(F)F)ccc34)CC2)c(OC)c1 [compound 826077],88.9 nM
10,CN(C)c1ccc(CNC(=O)[C@]2(C)C[C@H]2CN2CCN(c3csc4cc(C(F)(F)F)ccc34)CC2)cc1 [compound 825894],59 nM
11,CC[C@H]1CC[C@H](NC(=O)[C@@H]2C[C@H]2CN2CCN(c3ncc(C(F)(F)F)cc3Cl)CC2)CC1 [compound 817093],5.97 nM
12,C[C@H](NC(=O)[C@@H]1C[C@H]1CN1CCN(c2csc3cc(C(F)(F)F)ccc23)CC1)c1ccccc1 [compound 826074],72.6 nM
13,O=C(CCCCN1CCN(c2csc3cc(F)ccc23)CC1)N(Cc1ccccc1)c1ccc(F)cc1 [compound 814649],38.9 nM
14,CC[C@H]1CC[C@H](NC(=O)[C@@H]2C[C@H]2CN2CCN(c3cc(C)ccc3C)CC2)CC1 [817102A],7.57 nM

# The remaining lines, values ahead:
row,Ki,Structure (SMILES)
1,162 nM,O=C(Nc1cccc2c1CCCC2)[C@@H]1C[C@H]1CN1CCN(c2csc3cc(C(F)(F)F)ccc23)CC1 [compound 826078]
2,82 nM,O=C(CCCCN1CCN(c2csc3cc(F)ccc23)CC1)Nc1cccc2ccccc12 [compound 822134]
3,15 nM,O=C(NC1CCCCC1)[C@@H]1C[C@H]1CN1CCN(c2csc3cc(C(F)(F)F)ccc23)CC1 [compound 826076]
4,45 nM,O=C(NCCN1CCOCC1)[C@@H]1C[C@H]1CN1CCN(c2csc3cc(C(F)(F)F)ccc23)CC1 [compound 826656]
5,51 nM,CCN(C(=O)CCCCN1CCN(c2csc3cc(F)ccc23)CC1)c1ccc2c(c1)OCO2 [compound 822130]
6,15 nM,CC[C@H]1CC[C@H](NC(=O)[C@@H]2C[C@H]2CN2CCN(c3csc4cc(C(F)(F)F)ccc34)CC2)CC1 [compound 815918]
7,217 nM,CC(C)(C)c1ccc(NC(=O)CCCN2CCN(c3csc4cc(F)ccc34)CC2)cc1 [compound 822147]

# Same assay, conditions: Table 2 part the 10th table; read-out: d3Ki
row,Ki,Structure (SMILES)
1,14.6 nM,CC1CC(C)CN(C(=O)CCCN2CCCN(c3csc4cc(F)ccc34)CC2)C1 (centres unmarked) [compound 826838]
2,268 nM,O=C(CCCN1CCN(c2csc3cc(C(F)(F)F)ccc23)CC1Cc1ccccc1)N1CCC(N2CCCC2)CC1 (centres unmarked) [compound 827067]
3,0.872 nM,CC1CCCCN1C(=O)CCCN1CCCN(c2csc3cc(F)ccc23)CC1 (centres unmarked) [compound 826833]
4,39.5 nM,CC1CCN(C(=O)[C@@H]2C[C@H]2CN2CCN(c3csc4cc(C(F)(F)F)ccc34)CC2)CC1 [compound 826906]
5,35 nM,O=C([C@@H]1C[C@H]1CN1CCCN(c2csc3cc(C(F)(F)F)ccc23)CC1)N1CCOCC1 [compound 826691]
6,126 nM,CCOC(=O)C1CCN(C(=O)CCCN2CCN(c3csc4cc(F)ccc34)CC2CCCc2ccccc2)CC1 (centres unmarked) [compound 827112]
7,81.7 nM,CC1CCCN1C(=O)CCCN1CCN(c2csc3cc(F)ccc23)CC1Cc1ccccc1 (centres unmarked) [compound 827103]
8,17.5 nM,O=C([C@@H]1C[C@H]1CN1CCN(c2csc3cc(C(F)(F)F)ccc23)CC1)N1CCC(N2CCCCC2)CC1 [compound 826910]
9,63.5 nM,O=C(CCCN1CCN(c2csc3cc(F)ccc23)CC1Cc1ccccc1)N1CCCC1 (centres unmarked) [compound 827100]

# Same assay, conditions: read-out: D3 Ki
row,Ki,Structure (SMILES)
1,16.2 nM,O=C(NCCCn1ccnc1)[C@@H]1C[C@H]1CN1CCN(c2nc3cccc4c3n2CCC4)CC1 [A002437350]
2,29 nM,COc1ccc2c(c1)c(N1CCN(C[C@@H]3C[C@H]3C(=O)N[C@H]3CC[C@H](O)CC3)CC1)nn2-c1ccc(C(F)(F)F)cc1 [compound 831949]
3,0.454 nM,"C[C@H]1CC[C@H](NC(=O)[C@@H]2C[C@H]2CN2CCC(c3cc4ccccc4s3)CC2)CC1 (relative stereo) [compound 831148, 2R-(4-Benzo[b]thiophen-2-yl-piperidin-1-ylmethyl)-1R-cyclopranecarboxylic acid (trans-4-methyl-cyclohexyl)-amide]"
4,81.2 nM,Cn1nc(N2CCN(C[C@@H]3C[C@H]3C(=O)NCCCN3CCSCC3)CC2)c2sccc21 [A002350370]
5,11 nM,O=C(NC1CCN(Cc2ccc(F)c(F)c2)CC1)[C@@H]1C[C@H]1CN1CCN(c2nn(-c3ccc(OC(F)(F)F)cc3)c3ccsc23)CC1 [A002437083]
6,7.97 nM,"C[C@H]1CC[C@H](NC(=O)[C@@H]2C[C@H]2CN2CCC(c3csc4c(C(F)(F)F)cccc34)CC2)CC1 [compound 833690, 2R-[4-(7-Trifluoromethyl-benzo[b]thiophen-3-yl)-piperidin-1-ylmethyl]-1R-cyclopropanecarboxylic acid (trans-4-methyl-cyclohexyl)-amide]"
7,16.1 nM,CC[C@H]1CC[C@H](NC(=O)[C@@H]2C[C@H]2CN2CCN(c3cnccn3)CC2)CC1 [compound 827226]
8,3.51 nM,O=C(NCCCn1ccnc1)[C@@H]1C[C@H]1CN1CCC(c2csc3cc(C(F)(F)F)ccc23)CC1 [compound 834003]
9,22.2 nM,CC(C)(C)OC(=O)N1CCC(CNC(=O)C2CC2CN2CCN(c3csc4cc(C(F)(F)F)ccc34)CC2)C1 (centres unmarked) [compound 833625]
10,6.91 nM,"O=C(NCCCn1ccnc1)[C@@H]1C[C@H]1CN1CCN(c2csc3ncccc23)CC1 [compound 833821, 2R-(4-Thieno[2,3-b]pyridin-3-yl-piperazin-1-ylmethyl)-1R-cyclopropanecarboxylic acid (3-imidazol-1-yl-propyl)-amide]"
11,30.6 nM,CC(C)(C)OC(=O)N1CCCC(CNC(=O)[C@@H]2C[C@H]2CN2CCC(c3noc4ccsc34)CC2)C1 (mixture of isomers) [compound 833374]

row,Structure (SMILES),Ki
1,COc1cccc2c(C3CCN(C[C@@H]4C[C@H]4C(=O)N[C@H]4CC[C@H](C)CC4)CC3)nn(C)c12 [compound 834054],13.8 nM

# Same assay, conditions: read-out: d3Ki
row,Structure (SMILES),Ki
1,O=C(Nc1cccnc1)[C@@H]1CCCC[C@@H]1CN1CCN(c2csc3cc(C(F)(F)F)ccc23)CC1 [compound 826118],568 nM
2,CC[C@H]1CC[C@H](NC(=O)[C@@H]2C[C@H]2CN2CCN(c3ccc(Cl)c(Cl)c3)CC2)CC1 [compound 828393],3.45 nM
3,C[C@H]1CC[C@H](NC(=O)[C@@H]2C[C@H]2CN2CCN(c3ccc(Cl)c(Cl)c3)CC2)CC1 [compound 827185],4.89 nM
4,C[C@H]1CC[C@H](NC(=O)[C@@H]2C[C@H]2CN2CCN(c3cnccn3)CC2)CC1 [compound 827187],10.6 nM
5,CC[C@H]1CC[C@H](NC(=O)[C@@H]2C[C@H]2CN2CCN(c3cccc(C)c3)CC2)CC1 [compound 827219],2.63 nM
6,C[C@H]1CC[C@H](NC(=O)[C@@H]2C[C@H]2CN2CCN(c3ccc([N+](=O)[O-])cc3)CC2)CC1 [compound 827205],200 nM
7,C[C@H]1CC[C@H](NC(=O)[C@@H]2C[C@H]2CN2CCN(c3ccccc3)CC2)CC1 [compound 827191],0.724 nM
8,CC[C@H]1CC[C@H](NC(=O)[C@@H]2C[C@H]2CN2CCN(c3cnccn3)CC2)CC1 [compound 827226],16.1 nM
9,C[C@H]1CC[C@H](NC(=O)[C@@H]2C[C@H]2CN2CCN(c3ccccn3)CC2)CC1 [compound 827175],4 nM
10,CC[C@H]1CC[C@H](NC(=O)[C@@H]2C[C@H]2CN2CCN(C(=O)c3ccco3)CC2)CC1 [compound 827228],62 nM
11,CC[C@H]1CC[C@H](NC(=O)[C@@H]2C[C@H]2CN2CCN(c3cc(C)ccc3C)CC2)CC1 [compound 817570],6.24 nM
12,C[C@H]1CC[C@H](NC(=O)[C@@H]2C[C@H]2CN2CCN(c3cccc(C(F)(F)F)c3)CC2)CC1 [compound 827190],2.42 nM

# The next lines start with the values.
row,Ki,Structure (SMILES)
1,502 nM,O=C(NC1CC1)[C@@H]1CCCC[C@H]1CN1CCN(c2csc3cc(C(F)(F)F)ccc23)CC1 [compound 826121]
2,6.75 nM,CCN(C(=O)[C@@H]1C[C@H]1CN1CCCN(c2csc3cc(F)ccc23)CC1)C1CCCCC1 [compound 826869]
3,6.3 nM,COC(=O)[C@H]1CC[C@H](NC(=O)[C@@H]2C[C@H]2CN2CCN(c3csc4cc(F)ccc34)CC2)CC1 [compound 826666]
4,3.68 nM,CCOC(=O)[C@H]1CC[C@H](NC(=O)[C@@H]2C[C@H]2CN2CCCN(c3csc4cc(F)ccc34)CC2)CC1 [compound 826865]
5,9.1 nM,CCOC(=O)[C@H]1CC[C@H](NC(=O)[C@@H]2C[C@H]2CN2CCCN(c3csc4cc(C(F)(F)F)ccc34)CC2)CC1 [compound 826679]
6,3.9 nM,O=C(NC1CCCCCCCC1)[C@@H]1C[C@H]1CN1CCN(c2csc3cc(F)ccc23)CC1 [compound 826668]
7,2.38 nM,O=C(NC1CCCCC1)[C@@H]1C[C@H]1CN1CCCN(c2csc3cc(F)ccc23)CC1 [compound 826881]
